25 compounds from patent publication US20050148631A1, “Amino heterocyclyl inhibitors of 11-beta-hydroxy steroid dehydrogenase type 1” (AGOURON PHARMACEUTICALS, INC., priority 2003, published 2005) can be followed below.

The target in assay [1] is T1, 11β-hsd-1 enzyme (Homo sapiens, UniProt P28845). Kind of assay: 11β-hsd-1 enzyme assay, Kiapp determination (3H-cortisone to cortisol, radio-HPLC). The assay is classed as biochemical. Particulars: read-out: Ki app.
For assay [2], the target named is T1, 11β-hsd-1 enzyme. In words: 11β-hsd-1 enzyme assay, percentage of inhibition (3H-cortisone to cortisol, radio-HPLC). The assay is classed as biochemical. Particulars: read-out: % inh @ 0.1 uM.

pKi: −log10 of the molar value. Like-named read-outs stand apart in the source and are kept apart here.

T1 sequence (P28845 whole entry, species assumed): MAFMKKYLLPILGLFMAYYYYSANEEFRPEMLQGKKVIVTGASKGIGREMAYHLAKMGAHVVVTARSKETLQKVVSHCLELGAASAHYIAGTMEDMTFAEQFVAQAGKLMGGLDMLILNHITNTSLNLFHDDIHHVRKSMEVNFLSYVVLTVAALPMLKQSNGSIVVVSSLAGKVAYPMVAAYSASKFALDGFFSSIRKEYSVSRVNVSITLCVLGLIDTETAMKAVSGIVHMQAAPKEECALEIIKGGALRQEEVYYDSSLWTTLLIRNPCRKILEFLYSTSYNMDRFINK

On to `Cc1cccc(NS(=O)(=O)c2ccc(-c3ccc(Cl)cc3)c(C)c2)n1` [Example 217], for which the pKi at 11β-hsd-1 enzyme [1] (apparent Ki, 11β-hsd-1 enzyme) was 8.30. The inhibition at 0.1 µM on 11β-hsd-1 enzyme [2] (compound at 0.1 uM) amounted to 95%.

`COc1ccc(-c2ccc(S(=O)(=O)Nc3cccc(C)n3)c(C)c2)cc1C` [Example 205]: the negative logarithm of the Ki (pKi) on 11β-hsd-1 enzyme [1] (apparent Ki, 11β-hsd-1 enzyme) was 7.72. Also, on 11β-hsd-1 enzyme [2] (compound at 0.1 uM), the inhibition at 0.1 µM came to 86%.

In the case of `Cc1cccc(NS(=O)(=O)c2ccc(-c3cccc(F)c3F)cc2C)n1` [Example 198], the pKi at 11β-hsd-1 enzyme [1] (apparent Ki, 11β-hsd-1 enzyme) is 8.12. For the same compound, the inhibition at 0.1 µM on 11β-hsd-1 enzyme [2] (compound at 0.1 uM) came out at 100%.

On to `COc1ccc(-c2ccc(S(=O)(=O)Nc3cccc(C)n3)c(C)c2)cc1F` [Example 187], for which the pKi at 11β-hsd-1 enzyme [1] was 8.02. In addition, the inhibition at 0.1 µM on 11β-hsd-1 enzyme [2] (0.1 uM) stood at 93%.

With `CCOC(=O)Cc1cccc(NS(=O)(=O)c2ccc(-c3ccc(C#N)cc3)cc2)n1` [Example 2], on 11β-hsd-1 enzyme [1], the pKi is 7.80. The inhibition at 0.1 µM at 11β-hsd-1 enzyme [2] (0.1 uM) is 85.4%.

As to `Nc1cccc(NS(=O)(=O)c2ccc(-c3ccccc3)cc2)n1` [Example 40], the negative-log Ki (pKi) on 11β-hsd-1 enzyme [1] is 8.37. Also, the inhibition at 0.1 µM at 11β-hsd-1 enzyme [2] (0.1 uM) turned out to be 98%.

Turning to `Cc1cccc(NS(=O)(=O)c2ccc(-c3cccc(F)c3)cc2C)n1` [Example 173], on 11β-hsd-1 enzyme [1], the pKi was 8.02. In addition, the inhibition at 0.1 µM on 11β-hsd-1 enzyme [2] (0.1 uM) is 97%.

In the case of `Cc1cccc(NS(=O)(=O)c2ccc(-c3ccc(C#N)cc3)nc2)n1` [Example 267, 6-(4-Cyano-phenyl)-pyridine-3-sulfonic acid (6-methyl-pyridin-2-yl)-amide], the pKi at 11β-hsd-1 enzyme [1] (apparent Ki, 11β-hsd-1 enzyme) was 7.65. In addition, on 11β-hsd-1 enzyme [2] (compound at 0.1 uM), the inhibition at 0.1 µM was determined as 81.8%.

Regarding `Cc1cccc(NS(=O)(=O)c2ccc3c(Cl)cccc3c2)n1` [Example 102], the pKi at 11β-hsd-1 enzyme [1] is more than 9.00. In addition, on 11β-hsd-1 enzyme [2] (0.1 uM), the inhibition at 0.1 µM came out at 100%.

As for `Cc1cccc(NS(=O)(=O)c2ccc3ccc(Cl)cc3c2)n1` [Example 93], the pKi at 11β-hsd-1 enzyme [1] was 7.37. For the same compound, at 11β-hsd-1 enzyme [2] (0.1 uM), the inhibition at 0.1 µM came out at 70%.

Consider `Cc1ccc(-c2ccc(S(=O)(=O)Nc3cccc(C)n3)cc2C)cc1` [Example 215], for which the pKi on 11β-hsd-1 enzyme [1] (apparent Ki, 11β-hsd-1 enzyme) is 7.80. The inhibition at 0.1 µM at 11β-hsd-1 enzyme [2] (compound at 0.1 uM) was 90%.

As for `CCN(CC)C(=O)Cc1cccc(NS(=O)(=O)c2ccc(C(F)(F)F)cc2)n1` [Example 21], the pKi on 11β-hsd-1 enzyme [1] is 6.32.

Consider `CCN(CC)C(=O)Cc1cccc(NS(=O)(=O)c2cccc(Cl)c2C)n1` [Example 20], for which, on 11β-hsd-1 enzyme [1], the pKi was 6.66.

For `Cc1cccc(NS(=O)(=O)c2ccc(-c3ccc(C#N)cn3)cc2)n1` [Example 275], the inhibition at 0.1 µM on 11β-hsd-1 enzyme [2] (compound at 0.1 uM) stood at 85.7%.

As to `Cc1ccc(NS(=O)(=O)c2ccc(-c3ccccc3)cc2)nc1` [Example 66], the inhibition at 0.1 µM on 11β-hsd-1 enzyme [2] (0.1 uM) came out at 33.8%.

Regarding `Cc1cccc(NS(=O)(=O)N2CCC(c3ccncc3)C2)n1` (stereo not drawn) [Example 297, 3-Pyridin-4-yl-pyrrolidine-1-sulfonic acid (6-methyl-pyridin-2-yl)-amide], the inhibition at 0.1 µM on 11β-hsd-1 enzyme [2] (compound at 0.1 uM) is 3.4%.

For `Cc1c(Cl)cccc1S(=O)(=O)Nc1cccc(CC(=O)N2CCC(F)(F)CC2)n1` [Example 32], on 11β-hsd-1 enzyme [2] (0.1 uM), the inhibition at 0.1 µM worked out at 20.4%.

Regarding `Cc1cccc(NS(=O)(=O)c2cccc3ccccc23)n1` [Example 51], the inhibition at 0.1 µM on 11β-hsd-1 enzyme [2] (0.1 uM) was determined as 10.2%.

Consider `CN(C)Cc1cccc(NS(=O)(=O)c2ccc(-c3ccc(C#N)cc3)cc2)n1` [Example 79], for which the inhibition at 0.1 µM on 11β-hsd-1 enzyme [2] (0.1 uM) was found to be 8.1%.

With `CC(=O)Nc1ccc(-c2ccc(S(=O)(=O)Nc3cccc(C)n3)cc2)cc1` [Example 149], the inhibition at 0.1 µM at 11β-hsd-1 enzyme [2] (0.1 uM) came out at 20.4%.

In the case of `Cc1ccc(C)c(-c2ccc(S(=O)(=O)Nc3cccc(C)n3)cc2C)c1` [Example 240], the inhibition at 0.1 µM at 11β-hsd-1 enzyme [2] (compound at 0.1 uM) amounted to 89%.

`CCN(CC)C(=O)Cc1cccc(NS(=O)(=O)c2ccc(F)cc2)n1` [Example 24]: the inhibition at 0.1 µM at 11β-hsd-1 enzyme [2] (0.1 uM) came to 3.7%.

For `Cc1cccc(NS(=O)(=O)c2ccc(-c3cc(Cl)ccc3Cl)cc2)n1` [Example 134], the inhibition at 0.1 µM at 11β-hsd-1 enzyme [2] (0.1 uM) worked out at 83.5%.

For `COC(=O)c1cccc(NS(=O)(=O)c2ccc(-c3ccc(C#N)cc3)cc2)n1` [Example 7], the inhibition at 0.1 µM on 11β-hsd-1 enzyme [2] (0.1 uM) is 7.7%.

`Cc1cccc(NS(=O)(=O)c2ccc3oc4ccccc4c3c2)n1` [Example 63]: on 11β-hsd-1 enzyme [2] (0.1 uM), the inhibition at 0.1 µM turned out to be 32.7%.
